Test results taken from patent US11149036B2, “3-(1H-pyrazol-4-yl)pyridine allosteric modulators of the M4 muscarinic acetylcholine receptor” (Merck Sharp & Dohme Corp., priority 2017, dated 2021).

What follows are molecules tested against T1, human M4 muscarinic acetylcholine receptor (Homo sapiens, UniProt P08173) (assay: human FLIPR-based M4 PAM assay (CHO-K1 cells with human M4 receptor and Gaqi5, calcium dye fluorescence)). Details: inflection point (IP) of dose response curve, acetylcholine added at 20% of maximum response, read-out: M4 FLIPPR Hu IP.
T1 construct: expressed in transfected cells; host or cells: CHO-K1
T1 sequence (P08173 1-479): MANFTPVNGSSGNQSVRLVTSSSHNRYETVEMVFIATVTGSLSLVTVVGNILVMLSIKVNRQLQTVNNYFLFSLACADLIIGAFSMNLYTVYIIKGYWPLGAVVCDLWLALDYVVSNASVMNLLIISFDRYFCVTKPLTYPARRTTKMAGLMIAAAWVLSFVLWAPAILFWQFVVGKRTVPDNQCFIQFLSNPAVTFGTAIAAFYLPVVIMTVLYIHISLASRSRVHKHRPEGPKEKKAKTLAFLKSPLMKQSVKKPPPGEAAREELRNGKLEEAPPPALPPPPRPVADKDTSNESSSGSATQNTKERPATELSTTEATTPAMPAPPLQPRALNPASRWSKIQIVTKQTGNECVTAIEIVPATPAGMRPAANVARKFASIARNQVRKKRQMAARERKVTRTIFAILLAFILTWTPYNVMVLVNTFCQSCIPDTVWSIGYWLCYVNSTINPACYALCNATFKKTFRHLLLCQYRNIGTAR
Type: cell-based
Outline: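 CHO-K1 cells stably expressing human M4 with chimeric Gaqi5, calcium-dye loaded ~1 h at 37° C; compound added at increasing concentrations 4 min before acetylcholine at an EC20 concentration (sometimes a further EC70 addition).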
Cn1c(Cl)nc2cc(-c3nc(C#N)ccc3-c3cnn(CC4(C)CCCC4)c3)ccc21 [Example 154, 6-(2-chloro-1-methyl-1H-benzo[d]imidazol-5-yl)-5-(1-((1-methylcyclopentyl)methyl)-1H-pyrazol-4-yl)picolinonitrile] showed an EC50 of 44 nM. COCc1nc2cc(-c3nc(C#N)ccc3-c3cnn(CC4(F)CCCC4)c3)ccn2n1 [Example 155, 5-(1-((1-fluorocyclopentyl)methyl)-1H-pyrazol-4-yl)-6-(2-(methoxymethyl)-[1,2,4]triazolo[1,5-a]pyridin-7-yl)picolinonitrile] gave an EC50 of 55 nM. Molecule COc1cc2ccc(-c3nc(C)c(C)cc3-c3cnn(CC4(C)CCCC4)c3)cc2nn1 [Example 157, 7-(5,6-dimethyl-3-(1-((1-methylcyclopentyl)methyl)-1H-pyrazol-4-yl)pyridin-2-yl)-3-methoxycinnoline] has an EC50 of 7 nM. Cc1ccc(-c2cnn(CC3CCCC3)c2)c(-c2ccc3cc(N)nnc3c2)n1 [Example 158, 7-(3-(1-(cyclopentylmethyl)-1H-pyrazol-4-yl)-6-methylpyridin-2-yl)cinnolin-3-amine] showed an EC50 of 19 nM. For Cc1ccc(-c2cnn(CC3CCCC3)c2)c(-c2ccc3cc(I)nnc3c2)n1 [Example 159, 7-(3-(1-(cyclopentylmethyl)-1H-pyrazol-4-yl)-6-methylpyridin-2-yl)-3-iodocinnoline], the EC50 was 14 nM. In the case of N#Cc1ccc(-c2nc(C#N)ccc2-c2cnn(CC3CCCC3)c2)cc1 [Example 160, 6-(4-cyanophenyl)-5-(1-(cyclopentylmethyl)-1H-pyrazol-4-yl)picolinonitrile], the EC50 is reported as 48 nM. CC1(Cn2cc(-c3ccc(C#N)nc3-c3ccc4cc(N5CCC5)cnc4c3)cn2)CCCC1 [Example 161, 6-(3-(azetidin-1-yl)Quinolin-7-yl)-5-(1-((1-methylcyclopentyl)methyl)-1H-pyrazol-4-yl)picolinonitrile] showed an EC50 of 45 nM. Molecule Cc1cn2ccc(-c3nc(C#N)c(Cl)cc3-c3cnn(CC4(C)CCCC4)c3)cc2n1 [Example 162, 3-chloro-5-(1-((1-methylcyclopentyl)methyl)-1H-pyrazol-4-yl)-6-(2-methylimidazo[1,2-a]pyridin-7-yl)picolinonitrile] has an EC50 of 40 nM. CC1(Cn2cc(-c3ccc(C#N)nc3-c3ccc4cc(CO)nnc4c3)cn2)CCCC1 [Example 163, 6-(3-(hydroxymethyl)cinnolin-7-yl)-5-(1-((1-methylcyclopentyl)methyl)-1H-pyrazol-4-yl)picolinonitrile] showed an EC50 of 46 nM. For CC1(Cn2cc(-c3ccc(C#N)nc3-c3ccc4cc(CF)nnc4c3)cn2)CCCC1 [Example 164, 6-(3-(fluoromethyl)cinnolin-7-yl)-5-(1-((1-methylcyclopentyl)methyl)-1H-pyrazol-4-yl)picolinonitrile], the EC50 was 85 nM. In the case of Clc1ccc(-c2cnn(CC3CCCC3)c2)c(-c2ccc3cccnc3c2)n1 [Example 165, 7-(6-chloro-3-(1-(cyclopentylmethyl)-1H-pyrazol-4-yl)pyridin-2-yl)quinoline], the EC50 is reported as 7 nM. FC(F)Oc1ccc(-c2cnn(CC3CCCC3)c2)c(-c2ccc3cccnc3c2)n1 [Example 166, 7-(3-(1-(cyclopentylmethyl)-1H-pyrazol-4-yl)-6-(difluoromethoxy)pyridin-2-yl)quinoline] gave an EC50 of 26 nM. Work on c1cnc2cc(-c3nc(-n4cccn4)ccc3-c3cnn(CC4CCCC4)c3)ccc2c1 [Example 167, 7-(3-(1-(cyclopentylmethyl)-1H-pyrazol-4-yl)-6-(1H-pyrazol-1-yl)pyridin-2-yl)quinoline] yielded an EC50 of 98 nM. Work on C#Cc1ccc(-c2cnn(CC3CCCC3)c2)c(-c2ccc3cccnc3c2)n1 [Example 168, 7-(3-(1-(cyclopentylmethyl)-1H-pyrazol-4-yl)-6-ethynylpyridin-2-yl)quinoline] yielded an EC50 of 24 nM. CC1(Cn2cc(-c3cc(F)c(C#N)nc3-c3ccn4cc(CF)nc4c3)cn2)CCCC1 [compound 136, 3-fluoro-6-(2-(fluoro-methyl)imidazo[1,2-a]pyridin-7-yl)-5-(1-((1-methylcyclopentyl)meth-yl)-1H-pyrazol-4-yl)picolinonitrile] was tested, and the EC50 was 19 nM. Molecule Cn1cnc2cc(-c3nc(F)c(F)cc3-c3cnn(CC4(C)CCCC4)c3)cnc21 [compound 138, 6-(5,6-difluoro-3-(1-((1-methylcyclopentyl)methyl)-1H-pyrazol-4-yl)pyridin-2-yl)-3-methyl-3H-imidazo[4,5-b]pyridine] has an EC50 of 70 nM. Work on COCc1cn2ccc(-c3nc(C#N)ccc3-c3cnn(CC4(C)CCCC4)c3)cc2n1 [compound 156, 6-(2-(methoxymeth-yl)imidazo[1,2-a]pyridin-7-yl)-5-(1-((1-methylcyclopentyl)meth-yl)-1H-pyrazol-4-yl)picolinonitrile] yielded an EC50 of 29 nM.
